Earlier results in PMC11345841, “Exploring 2-Sulfonylpyrimidine Warheads as Acrylamide Surrogates for Targeted Covalent Inhibition: A BTK Story” (Journal of Medicinal Chemistry, 2024).
Where two headings read alike, the source gives them in different places.

Tested on: 468 human kinases
Settings: cited from earlier work; for %Control: @1000nM, ref Buhimschi et al. 2018

C=CC(=O)N1CCC[C@@H](n2nc(-c3ccc(Oc4ccccc4)cc3)c3c(N)ncnc32)C1 [Compound 1g, Ibrutinib, reference compound]
number of kinases with ≥90 inhibition belonging to the TK family (including BTK) (1 μM): 36 kinases | number of kinases with ≥90 inhibition out of 468 (1 μM): 39 kinases | %Control (ABL1(E255K)-phosphorylated): 71% | %Control (ABL1(F317I)-nonphosphorylated): 30% | %Control (ABL1(F317L)-nonphosphorylated): 25% | %Control (ABL1(F317L)-phosphorylated): 49% | %Control (ABL1(H396P)-nonphosphorylated): 18% | %Control (ABL1(Q252H)-nonphosphorylated): 6.4% | %Control (ABL1(Q252H)-phosphorylated): 67% | %Control (ABL1(T315I)-nonphosphorylated): 100% | %Control (ABL1-nonphosphorylated): 9% | %Control (ABL1-phosphorylated): 69% | %Control (ABL2): 43% | %Control (ALK(C1156Y)): 91% | %Control (ALK(L1196M)): 96% | %Control (BMX): 38% | %Control (BRK): 1.4% | %Control (BTK): 0% | %Control (CSK): 2.4% | %Control (DDR2): 100% | %Control (EGFR(E746-A750del)): 5.1% | %Control (EGFR(G719C)): 0.35% | %Control (EGFR(G719S)): 0.45% | %Control (EGFR(L747-E749del, A750P)): 0.3% | %Control (EGFR(L747-S752del, P753S)): 12% | %Control (EGFR(L747-T751del,Sins)): 1.4% | %Control (EGFR(L858R)): 1.4% | %Control (EGFR(L858R,T790M)): 6.9% | %Control (EGFR(L861Q)): 0.1% | %Control (EGFR(S752-I759del)): 0% | %Control (EGFR(T790M)): 0.15% | %Control (EGFR): 0% | %Control (EPHA2): 96% | %Control (EPHA5): 100% | %Control (EPHA7): 100% | %Control (EPHA8): 78% | %Control (EPHB2): 100% | %Control (EPHB3): 89% | %Control (EPHB4): 100% | %Control (EPHB6): 8.6% | %Control (ERBB2): 0% | %Control (ERBB3): 0% | %Control (FAK): 93% | %Control (FER): 95% | %Control (FES): 100% | %Control (FGFR1): 42% | %Control (FGFR2): 42% | %Control (FGFR3(G697C)): 35% | %Control (FGFR3): 45% | %Control (FGFR4): 100% | %Control (FGR): 10% | %Control (FLT3(D835H)): 18% | %Control (FLT3(D835V)): 1.9% | %Control (FLT3(D835Y)): 44% | %Control (FLT3(K663Q)): 38% | %Control (FLT3(N841I)): 31% | %Control (FLT3(R834Q)): 54% | %Control (FLT3-autoinhibited): 94% | %Control (FLT3): 26% | %Control (FLT4): 38% | %Control (FRK): 11% | %Control (FYN): 5.3% | %Control (HCK): 0.3% | %Control (IGF1R): 100% | %Control (INSR): 87% | %Control (INSRR): 96% | %Control (ITK): 6.8% | %Control (JAK1(JH1domain-catalytic)): 100% | %Control (JAK1(JH2domain-pseudokinase)): 91% | %Control (JAK2(JH1domain-catalytic)): 87% | %Control (JAK3(JH1domain-catalytic)): 0% | %Control (KIT(A829P)): 21% | %Control (KIT(D816H)): 78% | %Control (KIT(L576P)): 42% | %Control (KIT(V559D)): 31% | %Control (KIT(V559D,T670I)): 94% | %Control (KIT(V559D,V654A)): 91% | %Control (KIT): 57% | %Control (LCK): 0.2% | %Control (LYN): 9.5% | %Control (MERTK): 74% | %Control (MET(M1250T)): 56% | %Control (MET(Y1235D)): 87% | %Control (PDGFRA): 48% | %Control (PDGFRB): 35% | %Control (RET(M918T)): 14% | %Control (RET(V804M)): 72% | %Control (RET): 9.3% | %Control (ROS1): 97% | %Control (SRC): 3.2% | %Control (SYK): 91% | %Control (TEC): 1.9% | %Control (TIE1): 61% | %Control (TIE2): 58% | %Control (TNK1): 23% | %Control (TNK2): 35% | %Control (TRKB): 82% | %Control (TXK): 3.8% | %Control (TYK2(JH1domain-catalytic)): 89% | %Control (TYRO3): 96% | %Control (YES): 2.6%
